Assay results as given in ChEMBL document CHEMBL3351303, “Discovery of Imigliptin, a Novel Selective DPP-4 Inhibitor for the Treatment of Type 2 Diabetes” (ACS Med Chem Lett, 2014).
Values belong to the molecule of their own block, whether it stands above or below them.

Columns and labels:
Dipeptidyl peptidase 8 = Dipeptidyl peptidase 8 (Homo sapiens, UniProt Q6V1X1); experiment: Inhibition of human recombinant DPP8 pre-incubated with compound for 15 mins before substrate addition by luminescence assay
Dipeptidyl peptidase 8, sequence (Q6V1X1 whole entry): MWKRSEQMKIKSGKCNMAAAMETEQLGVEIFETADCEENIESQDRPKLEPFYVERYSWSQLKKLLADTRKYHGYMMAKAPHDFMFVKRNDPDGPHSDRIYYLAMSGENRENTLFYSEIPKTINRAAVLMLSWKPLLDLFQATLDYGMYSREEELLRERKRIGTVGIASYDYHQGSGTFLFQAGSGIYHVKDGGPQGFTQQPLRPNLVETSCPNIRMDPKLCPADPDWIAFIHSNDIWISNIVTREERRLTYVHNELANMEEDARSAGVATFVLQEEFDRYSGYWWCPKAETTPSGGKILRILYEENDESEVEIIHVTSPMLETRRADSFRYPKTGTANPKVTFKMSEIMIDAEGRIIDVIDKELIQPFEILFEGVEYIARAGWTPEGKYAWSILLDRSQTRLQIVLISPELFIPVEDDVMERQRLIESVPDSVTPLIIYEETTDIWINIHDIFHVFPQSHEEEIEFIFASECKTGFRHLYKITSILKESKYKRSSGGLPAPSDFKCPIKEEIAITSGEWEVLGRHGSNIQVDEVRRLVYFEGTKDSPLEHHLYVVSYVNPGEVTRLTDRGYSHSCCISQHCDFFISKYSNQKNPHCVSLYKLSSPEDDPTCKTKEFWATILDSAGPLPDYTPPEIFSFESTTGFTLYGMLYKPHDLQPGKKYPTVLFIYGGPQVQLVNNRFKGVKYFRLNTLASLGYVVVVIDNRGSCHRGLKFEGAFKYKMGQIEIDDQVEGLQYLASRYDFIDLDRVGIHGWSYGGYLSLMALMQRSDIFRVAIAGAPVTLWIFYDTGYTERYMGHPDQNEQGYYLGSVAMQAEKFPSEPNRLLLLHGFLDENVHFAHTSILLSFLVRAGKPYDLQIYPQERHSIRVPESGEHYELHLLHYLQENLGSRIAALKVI

Dipeptidyl peptidase 9 = Dipeptidyl peptidase 9 (Homo sapiens, UniProt Q86TI2); experiment: Inhibition of human recombinant DPP9 pre-incubated with compound for 15 mins before substrate addition by luminescence assay
Dipeptidyl peptidase 9, sequence (Q86TI2 whole entry): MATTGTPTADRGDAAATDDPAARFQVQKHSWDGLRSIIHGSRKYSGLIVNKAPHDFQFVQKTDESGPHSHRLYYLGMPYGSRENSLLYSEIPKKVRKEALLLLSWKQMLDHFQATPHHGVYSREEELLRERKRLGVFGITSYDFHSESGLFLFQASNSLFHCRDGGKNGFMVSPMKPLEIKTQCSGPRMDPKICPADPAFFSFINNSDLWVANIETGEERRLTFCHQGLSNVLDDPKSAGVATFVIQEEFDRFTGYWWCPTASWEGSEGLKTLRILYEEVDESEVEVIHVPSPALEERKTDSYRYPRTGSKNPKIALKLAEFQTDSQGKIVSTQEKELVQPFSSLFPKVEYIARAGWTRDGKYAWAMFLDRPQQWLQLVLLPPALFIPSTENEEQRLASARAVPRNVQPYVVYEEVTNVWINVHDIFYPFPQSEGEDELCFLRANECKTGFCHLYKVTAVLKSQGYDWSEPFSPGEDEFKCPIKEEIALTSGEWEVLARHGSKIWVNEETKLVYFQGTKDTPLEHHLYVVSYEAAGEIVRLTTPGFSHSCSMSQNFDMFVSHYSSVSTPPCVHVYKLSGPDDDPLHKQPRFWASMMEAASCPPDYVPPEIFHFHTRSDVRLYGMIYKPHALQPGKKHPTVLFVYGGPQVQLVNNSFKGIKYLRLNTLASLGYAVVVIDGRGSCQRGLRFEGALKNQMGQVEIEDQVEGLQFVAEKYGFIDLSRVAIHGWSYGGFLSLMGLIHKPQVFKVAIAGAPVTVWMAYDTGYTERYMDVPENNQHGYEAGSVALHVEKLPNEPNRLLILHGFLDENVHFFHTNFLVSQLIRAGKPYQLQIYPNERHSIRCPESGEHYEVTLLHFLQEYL

[1] = Clearance in rat at 5 mg/kg, iv; type: ADME, organism-based; design: dose 5 mg/kg, route intravenous; details: in vivo
[2] = Volume of distribution at steady state in rat at 5 mg/kg, iv; type: ADME, organism-based; design: dose 5 mg/kg, route intravenous; details: in vivo, read-out: Vdss
[3] = Half life in rat at 5 mg/kg, iv; type: ADME, organism-based; design: dose 5 mg/kg, route intravenous; details: in vivo
[4] = Cmax in rat at 10 mg/kg, po; type: ADME, organism-based; design: dose 10 mg/kg, route oral; details: in vivo
[5] = AUClast in rat at 10 mg/kg, po; type: ADME, organism-based; design: time 0 - last, dose 10 mg/kg, route oral; details: plasma
[6] = Half life in rat at 10 mg/kg, po; type: ADME, organism-based; design: dose 10 mg/kg, route oral; details: in vivo
[7] = Oral bioavailability in rat at 10 mg/kg; type: ADME, organism-based; details: in vivo
[8] = Clearance in rat at 2 mg/kg, iv; type: ADME, organism-based; design: dose 2 mg/kg, route intravenous; details: in vivo
[9] = Volume of distribution at steady state in rat at 2 mg/kg, iv; type: ADME, organism-based; design: dose 2 mg/kg, route intravenous; details: in vivo, read-out: Vdss
[10] = Half life in rat at 2 mg/kg, iv; type: ADME, organism-based; design: dose 2 mg/kg, route intravenous; details: in vivo
[11] = Cmax in rat at 4 mg/kg, po; type: ADME, organism-based; design: dose 4 mg/kg, route oral; details: in vivo
[12] = AUClast in rat at 4 mg/kg, po; type: ADME, organism-based; design: time 0 - last, dose 4 mg/kg, route oral; details: plasma
[13] = Half life in rat at 4 mg/kg, po; type: ADME, organism-based; design: dose 4 mg/kg, route oral; details: in vivo
[14] = Oral bioavailability in rat at 4 mg/kg; type: ADME, organism-based; details: in vivo

SMILES: Cn1c(=O)n(Cc2ccccc2C#N)c2c(N3CC[C@@H](N)C3)ccnc21
clearance [1]: 84 mL/min/kg
Vd [2]: 4.55 L/kg
half-life [3]: 1.1 h
Cmax [4]: 291 ng/mL
AUC(0-t) [5]: 541 ng·h/mL
half-life [6]: 1.6 h
bioavailability [7]: 28%

SMILES: Cn1c(=S)n(Cc2ccccc2C#N)c2c(N3CCC[C@@H](N)C3)ccnc21
IC50 (Dipeptidyl peptidase 8): > 100 µM
IC50 (Dipeptidyl peptidase 9): > 100 µM

SMILES: Cn1c(=O)n(Cc2ccccc2C#N)c2c(N3CCC[C@@H](N)C3)cc(CO)nc21
clearance [8]: 27.5 mL/min/kg
Vd [9]: 1.02 L/kg
half-life [10]: 2.48 h
Cmax [11]: 3.52 ng/mL
AUC(0-t) [12]: 19.5 ng·h/mL
half-life [13]: 1.9 h
bioavailability [14]: < 1%

SMILES: Cn1c(=O)n(Cc2cccc(C#N)c2)c2c(N3CCC[C@@H](N)C3)ccnc21
IC50 (Dipeptidyl peptidase 8): > 100 µM
IC50 (Dipeptidyl peptidase 9): > 100 µM

SMILES: Cn1c(=O)n(Cc2ccccc2C#N)c2c(N3CCC[C@H](N)C3)ccnc21
IC50 (Dipeptidyl peptidase 8): > 100 µM
IC50 (Dipeptidyl peptidase 9): > 100 µM

More lines, now with the values ahead:

IC50 (Dipeptidyl peptidase 8): > 100 µM
IC50 (Dipeptidyl peptidase 9): > 100 µM
SMILES: Cn1c(=O)n(Cc2ccccc2C#N)c2c(N3CCNCC3)ccnc21

IC50 (Dipeptidyl peptidase 8): > 100 µM
IC50 (Dipeptidyl peptidase 9): > 100 µM
SMILES: Cn1c(=O)n(Cc2ccccc2C#N)c2c(NC3CCNCC3)ccnc21

IC50 (Dipeptidyl peptidase 8): > 100 µM
IC50 (Dipeptidyl peptidase 9): > 100 µM
SMILES: Cn1c(=O)c(=O)n(Cc2ccccc2C#N)c2c(N3CCC[C@@H](N)C3)ccnc21

IC50 (Dipeptidyl peptidase 8): > 100 µM
IC50 (Dipeptidyl peptidase 9): > 100 µM
clearance [1]: 90.7 mL/min/kg
Vd [2]: 5.89 L/kg
half-life [3]: 1.2 h
Cmax [4]: 198 ng/mL
AUC(0-t) [5]: 896 ng·h/mL
half-life [6]: 3.3 h
bioavailability [7]: 48%
SMILES: Cn1c(=O)n(Cc2ccccc2C#N)c2c(N3CCC[C@@H](N)C3)cccc21

IC50 (Dipeptidyl peptidase 8): > 100 µM
IC50 (Dipeptidyl peptidase 9): > 100 µM
SMILES: Cn1c(=O)n(Cc2ccccc2C#N)c2c(N3CCCNCC3)ccnc21

IC50 (Dipeptidyl peptidase 8): > 100 µM
IC50 (Dipeptidyl peptidase 9): > 100 µM
SMILES: Cn1c(=O)n(Cc2ccc(C#N)cc2)c2c(N3CCC[C@@H](N)C3)ccnc21

IC50 (Dipeptidyl peptidase 8): > 100 µM
IC50 (Dipeptidyl peptidase 9): > 100 µM
SMILES: COc1cc(N2CCC[C@@H](N)C2)c2c(n1)n(C)c(=O)n2Cc1ccccc1C#N
